In patent publication US20240025875A1, “A COMPOUND AS A THYROID HORMONE BETA RECEPTOR AGONIST AND USE THEREOF” (SUNSHINE LAKE PHARMA CO., LTD., priority 2020, published 2024):

Key:
TRα = molecular target: T1, TRα (Homo sapiens, UniProt P10827); test: LanthaScreen TR-FRET Thyroid Receptor alfa Coactivator Assay (in vitro binding activity); conditions: TR alfa-LBD
T1 construct: 5 μL of 4×TR beta/alfa-LBD; purchased Invitrogen PV4687
Summary of the method: (§1)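 TR-FRET coactivator recruitment used GST-tagged TRα or TRβ ligand-binding domain with fluorescein-SRC2-2 peptide and Tb anti-GST antibody (0.4 μM and 8 nM in the added mix). Compound was run as 10-point 3-fold dilutions (2% DMSO solution) for 1 h at room temperature in the dark. EC50 came from the 520/495 nm emission ratio.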

TRβ = molecular target: T2, TRβ (Homo sapiens, UniProt P10828); test: LanthaScreen TR-FRET Thyroid Receptor beta Coactivator Assay (in vitro binding activity); conditions: TR beta-LBD
T2 construct: 5 μL of 4×TR beta/alfa-LBD; purchased Invitrogen PV4686
T2 sequence (P10828 217-461 limits assumed): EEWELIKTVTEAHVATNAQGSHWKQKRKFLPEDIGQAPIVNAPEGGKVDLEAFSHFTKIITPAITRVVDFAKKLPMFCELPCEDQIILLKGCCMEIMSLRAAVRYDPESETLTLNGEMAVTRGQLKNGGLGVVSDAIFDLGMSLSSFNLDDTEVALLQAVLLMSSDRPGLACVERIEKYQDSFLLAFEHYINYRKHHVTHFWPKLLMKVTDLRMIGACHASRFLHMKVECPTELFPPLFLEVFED
Summary of the method: as §1

[1] = Pharmacokinetic determination in SD rats (i.v. and i.g.); format: in vivo; conditions: for AUC(0-inf) / AUC(0-t) / Cmax / clearance / half-life / Vd: male, Sprague-Dawley (SD), rat, plasma; for Vd: read-out: VSS
Description: Test purposes: The following method was used to determine the pharmacokinetics of the compound of the present invention.
Test Materials: • Experimental reagents and test samples used: Propranolol (internal standard), methanol, ammonium acetate, K2EDTA (potassium ethylenediaminetetraacetic acid), formic acid, acetonitrile MTBE (methyl tert-butyl ether). KolliphorHS15 (macrogol 12 hydroxystearate), DMSO (dimethyl sulfoxide) are commercially available • SD rats: male, 180-220 g, 7-8 weeks old, purchased from Human Slack Experimental Animal Co., Ltd.
Each test sample prepared was completely dissolved in a mixture of 5% DMSO+5% KolliphorHS 15+90% Saline according solubility property thereof.
Samples were processed by liquid-liquid extraction, chromatographically separated, quantitatively analyzed by multiple reaction ion monitoring (MRM) on a triple quadrupole tandem mass spectrometer, and the concentration of the results was calculated by instrument quantitative software.
30 μL of plasma sample was precisely pipetted, added with 250 μL of internal standard, and vortexed to mix thoroughly. Plasma samples was extracted once with 1 mL of MTBE, centrifuged at 13,000 rpm for 2 min at 4° C. 800 μL of the supernatant was sucked out, evaporated to dryness in a 96-well nitrogen blower, and the residue was reconstituted with 150 μL of methanol/water (v/v=50/50), vortexed to mix, and injected with an injection volume of 8 μL.
LC/MS/MS method was used to determine the content of the test compound in rat plasma after administration of different compounds.
Pharmacokinetic parameters were calculated using a noncompartmental method by WinNonLin 6.1 software.

T1 sequence (P10827 163-410 isoform P10827-2 limits assumed, other chains not shown): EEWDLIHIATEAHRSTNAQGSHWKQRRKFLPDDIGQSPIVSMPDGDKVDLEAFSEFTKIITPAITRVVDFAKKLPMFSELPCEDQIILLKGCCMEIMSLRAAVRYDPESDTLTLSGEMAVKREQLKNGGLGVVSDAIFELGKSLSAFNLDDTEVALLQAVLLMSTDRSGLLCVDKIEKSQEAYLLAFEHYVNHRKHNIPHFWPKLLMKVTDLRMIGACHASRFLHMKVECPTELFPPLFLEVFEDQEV

| Compound | EC50 (TRα) [µM] | EC50 (TRβ) [µM] | F ([1]; ig, 5 mg/kg) [%] | AUC(0-inf) ([1]; iv, 1 mg/kg) [ng·h/mL] | AUC(0-t) ([1]; iv, 1 mg/kg) [ng·h/mL] | Cmax ([1]; iv, 1 mg/kg) [ng/mL] | clearance ([1]; iv, 1 mg/kg) [mL/min/kg] | half-life ([1]; iv, 1 mg/kg) [h] | Vd ([1]; iv, 1 mg/kg) [L/kg] | AUC(0-inf) ([1]; po, ig, 5 mg/kg) [ng·h/mL] | AUC(0-t) ([1]; po, ig, 5 mg/kg) [ng·h/mL] | Cmax ([1]; po, ig, 5 mg/kg) [ng/mL] | half-life ([1]; po, ig, 5 mg/kg) [h] |
| --- | --- | --- | --- | --- | --- | --- | --- | --- | --- | --- | --- | --- | --- |
| O=C1c2ccc(Oc3c(Cl)cc(-n4ncc(=O)[nH]c4=O)cc3Cl)cc2CCN1c1ccc(F)cc1 [Example 28] | > 100 | 0.017 | 97.6 | 9640 | 8730 | 8400 | 1.73 | 2.91 | 0.246 | 47000 | 47000 | 15500 | 2.29 |
| O=C1c2ccc(Oc3c(Cl)cc(-n4ncc(=O)[nH]c4=O)cc3Cl)cc2CCN1Cc1ccncc1 [Example 24, 2-(3,5-dichloro-4-((1-oxo-2-(pyridin-4-ylmethyl)-1,2,3,4-tetrahydroisoquinolin-6-yl)oxy)phenyl)-1,2,4-triazine-3,5(2H,4H)-dione] | > 100 | 0.075 | 117.7 | 3790 | 3720 | 4020 | 4.39 | 1.16 | 0.337 | 223000 | 21900 | 7790 | 2.65 |
| Cc1ccc(CN2CCc3cc(Oc4c(Cl)cc(-n5ncc(=O)[nH]c5=O)cc4Cl)ccc3C2=O)cc1 [Example 21, 2-(3,5-dichloro-4-((2-(4-methylbenzyl)-1-oxo-1,2,3,4-tetrahydroisoquinolin-6-yl)oxy)phenyl)-1,2,4-triazine-3,5(2H,4H)-dione] | > 100 | 0.019 | 81.9 | 1020 | 1020 | 2760 | 16.3 | 1.02 | 0.308 | 4180 | 4160 | 4730 | 1.44 |
| O=C1c2ccc(Oc3c(Cl)cc(-n4ncc(=O)[nH]c4=O)cc3Cl)cc2CCN1Cc1cccc(OC(F)(F)F)c1 [Example 43, 2-(3,5-dichloro-4-((1-oxo-2-(3-(trifluoromethoxy)benzyl)-1,2,3,4-tetrahydroisoquinolin-6-yl)oxy)phenyl)-1,2,4-triazine-3,5(2H,4H)-dione] | > 100 | 0.031 | 68.4 | 47700 | 39800 | 3410 | 0.349 | 9.52 | 0.26 | 212000 | 134000 | 8120 | 15.7 |
